Results published in patent publication US20110021483A1, “Platinum (IV) Complexes” (PLATCO TECHNOLOGIES (PROPRIETARY) LIMITED, priority 2007, published 2011).

Legend:
physchem = details: water
Hela cancer cells = assay: Anticancer activity, IC50 from dose response curves, HeLa cells; format: cell-based; details: concentrations 100, 50, 25, 10, 5 and 1 μM
Procedure: (§1) All Dose response curves were prepared for each of the chosen complexes, as well as positive controls, in order to obtain IC50 values. The concentrations used were 100, 50, 25, 10, 5 and 1 μM. IC50 values were calculated from the log-dose response curves using GraphPad Prism 4.

MCF7 cancer cells = assay: Anticancer activity, IC50 from dose response curves, MCF7 cells; format: cell-based; details: concentrations 100, 50, 25, 10, 5 and 1 μM
Procedure: as §1

[1] = Thermal stability of the solid complex; format: physicochemical
[2] = Stability: reduction by cysteine followed by positive ion mass spectra; format: physicochemical; details: water/37° C./18 h, presence of cysteine
Excerpt: This observation implies that certain platinum(IV) complexes described herein are capable of converting to their corresponding platinum(II) complexes.

HT29 cancer cells = assay: Anticancer activity, IC50 from dose response curves, HT29 cells; format: cell-based; details: concentrations 100, 50, 25, 10, 5 and 1 μM
Procedure: as §1

MCF7 cells = assay: Percent inhibition of MCF7 cells at single concentration, 48 h; format: cell-based
HeLa cells = assay: Percent inhibition of HeLa cells at single concentration, 48 h; format: cell-based
Procedure: The anticancer activity of cis-diammineoxalatochloronitroplatinum(IV) (complex I-A) has been compared to cisplatin against two cell lines for 48 h at 77 uM.

SMILES	solubility (physchem) [µg/mL]	IC50 (Hela cancer cells) [µM]	IC50 (MCF7 cancer cells) [µM]	Solid complex stable up to (temperature) [1]	Reduction to platinum(II) complex upon addition of cysteine [2]	IC50 (HT29 cancer cells) [µM]	Percent inhibition of MCF7 cells (MCF7 cells; 48 h at 50 uM) [%]	Percent inhibition of MCF7 cells (MCF7 cells; 48 h at 77 uM) [%]	Percent inhibition of HeLa cells (HeLa cells; 48 h at 50 uM) [%]	Percent inhibition of HeLa cells (HeLa cells; 48 h at 77 uM) [%]
[NH2][Pt]1([NH2])([Cl])([N+](=O)[O-])[O]C(=O)C(=O)[O]1 [I-A, cis-diammineoxalatochloronitroplatinum(IV)]	2400	–	–	–	–	–	–	–	–	–
NC1CCCCC1N.O=C([O-])C(=O)[O-].O=N[O-].[Cl-].[Pt+4] (stereo not drawn) [II-A, (trans-l-1,2-diaminocyclohexane)oxalatochloronitro-platinum(IV)]	–	4.81	5.86	up to 210 °C	oxaliplatin is formed	3.07	–	–	–	–
N.N.[Cl][Pt][Cl] [Cisplatin, cisplatin]	–	10.7	14.1	–	–	8.11	72	76	86	87
O=C1[O][Pt-2]2([NH2+]C3CCCC[C@H]3[NH2+]2)[O]C1=O (stereo in doubt) [Oxaliplatin, (trans-l-1,2-diaminocyclohexane)oxalatoplatinum(II)]	–	11.9	6.21	–	–	12.3	–	–	–	–
